In ChEMBL document CHEMBL1201862, “PubChem BioAssay data set” (2004):
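The compound was tested at five concentrations on cells cultured in 96-well plates, with a 48-hour exposure period. GI50: concentration for 50% inhibition of growth.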 Calls of active or inactive are those of the source. Rule as the data show it: active = GI50 up to about 1.1 µM and inactive = higher.

Key:
Assay in all cases: NCI anticancer screen, dose series, 48 h
Hs-578T = test system: Hs-578T
SN12C = test system: SN12C
PC-3 = test system: PC-3
KM12 = test system: KM12
RPMI-8226 = test system: RPMI-8226
HCT-116 = test system: HCT-116
UACC-62 = test system: UACC-62
Malme-3M = test system: Malme-3M
K562 = test system: K562
MDA-MB-435 = test system: MDA-MB-435
HT-29 = test system: HT-29
SK-MEL-28 = test system: SK-MEL-28
SF-539 = test system: SF-539
IGROV-1 = test system: IGROV-1
CAKI-1 = test system: CAKI-1
A549 = test system: A549
MOLT-4 = test system: MOLT-4
SNB-75 = test system: SNB-75
NCI-H23 = test system: NCI-H23
NCI-H460 = test system: NCI-H460
MDA-N = test system: MDA-N
UACC-257 = test system: UACC-257
LOX IMVI = test system: LOX IMVI
SF-295 = test system: SF-295
786-0 = test system: 786-0
HCC 2998 = test system: HCC 2998
NCI-H226 = test system: NCI-H226
OVCAR-5 = test system: OVCAR-5
OVCAR-8 = test system: OVCAR-8
A498 = test system: A498
NCI-H522 = test system: NCI-H522
DU-145 = test system: DU-145
HCT-15 = test system: HCT-15
SK-MEL-2 = test system: SK-MEL-2
COLO 205 = test system: COLO 205
SF-268 = test system: SF-268
NCI/ADR-RES = test system: NCI/ADR-RES
OVCAR-3 = test system: OVCAR-3
T47D = test system: T47D
UO-31 = test system: UO-31
SW-620 = test system: SW-620
SK-MEL-5 = test system: SK-MEL-5
RXF 393 = test system: RXF 393
SR = test system: SR
EKVX = test system: EKVX
U-251 = test system: U-251
HOP-92 = test system: HOP-92
MCF7 = test system: MCF7
M14 = test system: M14
ACHN = test system: ACHN
CCRF-CEM = test system: CCRF-CEM
SNB-19 = test system: SNB-19
SK-OV-3 = test system: SK-OV-3
HL-60 = test system: HL-60
HOP-62 = test system: HOP-62
BT-549 = test system: BT-549
MDA-MB-231 = test system: MDA-MB-231
OVCAR-4 = test system: OVCAR-4
TK-10 = test system: TK-10

O=C(Nc1ccccc1C(=O)O)/C(=C/c1ccccc1)NC(=O)c1ccccc1
GI50 (Hs-578T): > 100 µM (inactive) | GI50 (SN12C): > 100 µM (inactive) | GI50 (PC-3): > 100 µM (inactive) | GI50 (KM12): > 100 µM (inactive) | GI50 (RPMI-8226): > 100 µM (inactive) | GI50 (HCT-116): > 100 µM (inactive) | GI50 (UACC-62): > 100 µM (inactive) | GI50 (Malme-3M): > 100 µM (inactive) | GI50 (K562): > 100 µM (inactive) | GI50 (MDA-MB-435): > 100 µM (inactive) | GI50 (HT-29): > 100 µM (inactive) | GI50 (SK-MEL-28): > 100 µM (inactive) | GI50 (SF-539): > 100 µM (inactive) | GI50 (IGROV-1): > 100 µM (inactive) | GI50 (CAKI-1): > 100 µM (inactive) | GI50 (A549): > 100 µM (inactive) | GI50 (MOLT-4): > 100 µM (inactive) | GI50 (SNB-75): > 100 µM (inactive) | GI50 (NCI-H23): > 100 µM (inactive) | GI50 (NCI-H460): > 100 µM (inactive) | GI50 (MDA-N): > 100 µM (inactive) | GI50 (UACC-257): > 100 µM (inactive) | GI50 (LOX IMVI): > 100 µM (inactive) | GI50 (SF-295): > 100 µM (inactive) | GI50 (786-0): > 100 µM (inactive) | GI50 (HCC 2998): > 100 µM (inactive) | GI50 (NCI-H226): > 100 µM (inactive) | GI50 (OVCAR-5): > 100 µM (inactive) | GI50 (OVCAR-8): > 100 µM (inactive) | GI50 (A498): > 100 µM (inactive) | GI50 (NCI-H522): > 100 µM (inactive) | GI50 (DU-145): > 100 µM (inactive) | GI50 (HCT-15): > 100 µM | GI50 (SK-MEL-2): > 100 µM (inactive) | GI50 (COLO 205): > 100 µM (inactive) | GI50 (SF-268): > 100 µM (inactive) | GI50 (NCI/ADR-RES): > 100 µM (inactive) | GI50 (OVCAR-3): > 100 µM (inactive) | GI50 (T47D): > 100 µM (inactive) | GI50 (UO-31): > 100 µM (inactive) | GI50 (SW-620): > 100 µM (inactive) | GI50 (SK-MEL-5): > 100 µM (inactive) | GI50 (RXF 393): 65.9 µM (inactive) | GI50 (SR): > 100 µM (inactive) | GI50 (EKVX): > 100 µM (inactive) | GI50 (U-251): > 100 µM (inactive) | GI50 (HOP-92): > 100 µM (inactive) | GI50 (MCF7): > 100 µM (inactive) | GI50 (M14): > 100 µM (inactive) | GI50 (ACHN): > 100 µM (inactive) | GI50 (CCRF-CEM): > 100 µM (inactive) | GI50 (SNB-19): > 100 µM (inactive) | GI50 (SK-OV-3): > 100 µM (inactive) | GI50 (HL-60): > 100 µM (inactive) | GI50 (HOP-62): > 100 µM (inactive) | GI50 (BT-549): > 100 µM (inactive) | GI50 (MDA-MB-231): > 100 µM (inactive)

CN1CCCC2C(c3ccccc3)C(C3=NCCCC3)C(c3ccccc3)CC21 (stereo not given)
GI50 (Hs-578T): 21.7 µM (inactive) | GI50 (SN12C): > 100 µM (inactive) | GI50 (PC-3): 44.7 µM (inactive) | GI50 (KM12): 53.2 µM (inactive) | GI50 (RPMI-8226): 18.4 µM (inactive) | GI50 (HCT-116): 15.9 µM (inactive) | GI50 (UACC-62): 17.8 µM (inactive) | GI50 (Malme-3M): 19.6 µM (inactive) | GI50 (K562): 17.2 µM (inactive) | GI50 (MDA-MB-435): 19.5 µM (inactive) | GI50 (OVCAR-4): 73.6 µM (inactive) | GI50 (HT-29): 19.5 µM (inactive) | GI50 (SK-MEL-28): 16.2 µM (inactive) | GI50 (SF-539): 16 µM (inactive) | GI50 (IGROV-1): 50 µM (inactive) | GI50 (CAKI-1): > 100 µM (inactive) | GI50 (A549): > 100 µM (inactive) | GI50 (MOLT-4): 31.3 µM (inactive) | GI50 (SNB-75): 13.6 µM (inactive) | GI50 (TK-10): > 100 µM (inactive) | GI50 (NCI-H23): 64.7 µM (inactive) | GI50 (NCI-H460): 27.7 µM (inactive) | GI50 (MDA-N): 20.2 µM (inactive) | GI50 (UACC-257): 19.1 µM (inactive) | GI50 (LOX IMVI): 19.5 µM (inactive) | GI50 (SF-295): 49.2 µM (inactive) | GI50 (786-0): 24.5 µM (inactive) | GI50 (HCC 2998): 15.6 µM (inactive) | GI50 (NCI-H226): > 100 µM (inactive) | GI50 (OVCAR-5): > 100 µM (inactive) | GI50 (OVCAR-8): 39.5 µM (inactive) | GI50 (A498): 42.6 µM (inactive) | GI50 (NCI-H522): 17 µM (inactive) | GI50 (DU-145): > 100 µM (inactive) | GI50 (HCT-15): 27.2 µM | GI50 (SK-MEL-2): > 100 µM (inactive) | GI50 (COLO 205): 26.4 µM (inactive) | GI50 (SF-268): 59.3 µM (inactive) | GI50 (NCI/ADR-RES): 53.8 µM (inactive) | GI50 (OVCAR-3): 35.6 µM (inactive) | GI50 (T47D): > 100 µM (inactive) | GI50 (SW-620): 48.6 µM (inactive) | GI50 (SK-MEL-5): 16.9 µM (inactive) | GI50 (RXF 393): 23.4 µM (inactive) | GI50 (SR): 32.1 µM (inactive) | GI50 (EKVX): 71 µM (inactive) | GI50 (U-251): 32.2 µM (inactive) | GI50 (HOP-92): 85.9 µM (inactive) | GI50 (MCF7): 56.6 µM (inactive) | GI50 (M14): 20.7 µM (inactive) | GI50 (ACHN): 72.3 µM (inactive) | GI50 (CCRF-CEM): 35.2 µM (inactive) | GI50 (SNB-19): > 100 µM (inactive) | GI50 (SK-OV-3): > 100 µM (inactive) | GI50 (HL-60): 31.8 µM (inactive) | GI50 (HOP-62): > 100 µM (inactive) | GI50 (BT-549): 33.3 µM (inactive) | GI50 (MDA-MB-231): 51.2 µM (inactive)
